Test results published in ChEMBL document CHEMBL5247679, “Novel Quinoline Compounds as KRAS Inhibitors for Treating Cancer” (ACS Med Chem Lett, 2023).

Legend:
GTPase KRas [1] = biological target: GTPase KRas (Homo sapiens, UniProt P01116, G12D); test: Inhibition of KRAS G12D mutant (unknown origin) preincubated for 4 hrs followed by SOS1 addition and measured after 2 hrs by fluorescence based analysis
GTPase KRas [2] = biological target: GTPase KRas (Homo sapiens, UniProt P01116, G12V); test: Inhibition of KRAS G12V mutant (unknown origin) preincubated for 4 hrs followed by SOS1 addition and measured after 3 hrs by fluorescence based analysis
Sequence of GTPase KRas (Homo sapiens, UniProt P01116, G12V) (P01116 whole entry G12V): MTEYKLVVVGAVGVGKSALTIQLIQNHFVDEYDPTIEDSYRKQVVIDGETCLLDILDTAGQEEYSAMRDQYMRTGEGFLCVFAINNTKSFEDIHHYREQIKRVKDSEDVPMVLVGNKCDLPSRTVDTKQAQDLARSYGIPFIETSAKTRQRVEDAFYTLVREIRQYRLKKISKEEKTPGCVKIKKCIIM

Sequence of GTPase KRas (Homo sapiens, UniProt P01116, G12D) (P01116 whole entry G12D): as the sequence (P01116 whole entry G12V) above, with V12D counted along it

SMILES | IC50 (GTPase KRas [1]) [nM] | IC50 (GTPase KRas [2]) [nM]
Cc1nc2c(F)c(-c3cccc(Cl)c3Cl)c(CCC#N)cc2c2c1cc([C@@H](C)NC(=O)c1ccncn1)n2[C@H]1[C@H]2CN[C@@H]1C2 | ≤ 100 | ≤ 100
CN(C)C1(C)CN(c2nc3c(F)c(-c4cccc5ccc(F)cc45)c(CCC#N)cc3c3c2cc(CN2CCOCC2=O)n3[C@@H]2[C@@H]3CN[C@H]2C3)C1 | ≤ 100 | ≤ 100
Cc1cc2c(-n3cncn3)nc3c(F)c(-c4cc(O)cc5ccc(Cl)cc45)c(CCC#N)cc3c2n1[C@H]1[C@H]2CN[C@@H]1C2 | ≤ 100 | ≤ 100
C[C@H](Oc1nc2c(F)c(-c3csc4ccccc34)c(CCC#N)cc2c2c1cc(CN1CCCC1=O)n2[C@H]1[C@H]2CN[C@@H]1C2)[C@@H]1CCCN1C | ≤ 100 | ≤ 100

Next, values leading:

IC50 (GTPase KRas [1]) [nM] | IC50 (GTPase KRas [2]) [nM] | SMILES
≤ 100 | ≤ 100 | Cc1nc2c(F)c(-c3cccc(Cl)c3Cl)c(CCC#N)cc2c2c1cc([C@@H](C)NS(=O)(=O)C1CC1)n2[C@H]1[C@H]2CN[C@@H]1C2
≤ 100 | ≤ 100 | Cc1nc2c(F)c(-c3cccc(Cl)c3Cl)c(CCC#N)cc2c2c1cc([C@@H](C)NC(=O)c1cscn1)n2[C@H]1[C@H]2CN[C@@H]1C2
